Data reported in PMC4166032 (Bioconjugate Chemistry, 2014).
pIC50, pKi: −log10 of the molar value. Read-outs that look alike come from different tables or passages of the source. One block for each compound: values may come before it.

Columns and labels:
[1] = tested on: PXR; conditions: cited from earlier work; for pIC50: read-out: reported IC50, BODIPY FL vinblastine (4) as fluorescent probe
[2] = target: T1, GST-hPXR-LBD (Homo sapiens, UniProt O75469); test: biochemical; conditions: 30 min
T1 sequence (O75469 146-433 limits assumed): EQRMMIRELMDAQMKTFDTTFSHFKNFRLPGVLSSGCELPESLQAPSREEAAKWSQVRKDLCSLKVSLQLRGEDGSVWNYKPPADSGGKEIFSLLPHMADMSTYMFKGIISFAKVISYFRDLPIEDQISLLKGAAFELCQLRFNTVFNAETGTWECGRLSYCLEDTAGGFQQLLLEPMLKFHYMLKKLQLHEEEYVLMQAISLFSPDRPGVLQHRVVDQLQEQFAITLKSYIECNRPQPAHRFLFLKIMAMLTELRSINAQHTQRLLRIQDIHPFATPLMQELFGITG

[3] = target: T1, GST-hPXR-LBD
[4] = target: T1, GST-hPXR-LBD; test: biochemical

SMILES: Clc1ccccc1C(c1ccccc1)(c1ccccc1)n1ccnc1 [clotrimazole (6), clotrimazole]
pIC50 [1]: 5.71

pIC50 ([2]; IC50 with 50 nM 20, 50 nM BODIPY FL vindoline (20) probe): 4.68
pIC50 ([2]; IC50 with 100 nM 20, 100 nM BODIPY FL vindoline (20) probe, laboratory assay buffer, 1.1% DMSO): 4.42
SMILES: C[C@@H]1C(=O)O[C@H]2C[C@@]34[C@H]5C[C@@H](C(C)(C)C)[C@]36[C@@H](OC(=O)[C@@H]6O)O[C@@]4(C(=O)O5)[C@]21O [ginkgolide A (8), ginkgolide A]
pIC50 [1]: 4.86

SMILES: CC[C@]1(O)C[C@@H]2CN(CCc3c([nH]c4ccccc34)[C@@](C(=O)OC)(c3cc4c(cc3OC)N(C)[C@H]3[C@@](O)(C(=O)OC)[C@H](OC(C)=O)[C@]5(CC)C=CCN6CC[C@]43[C@@H]65)C2)C1 [vinblastine (10), vinblastine]
PXR-specific binding affinity [1]: low PXR-specific binding affinity

SMILES: CCC12C=CCN3CC[C@@]4(c5ccc(OC)cc5N(C)[C@H]4[C@@](O)(C(=O)OC)[C@@H]1OC(C)=O)[C@@H]32 (some centres unmarked) [vindoline (14), vindoline]
inhibitory activity at 100 μM [3]: 93%
pIC50 [4]: 4.89
pKi [4]: 4.95
